This test in a line: TR-FRET Assay: To identify novel antagonists of RORgammaT, an assay was developed which employs the interaction of RORgammaT with its co-activator peptide SRC1_2. This peptide mimics the recruitment of co-activators to RORgammaT through its interaction with the LXXLL (SEQ ID NO:1) (e.g., NR box) motifs (Xie et al., J. Immunol. 175: 3800-09, 2005; Kurebayashi et al., Biochem. Biophys. Res. Commun. 315: 919-27, 2004; Jin et al., Mol. Endocrinology 24:923-29, 2010). The RORγ-Ligand Binding Domain TR-FRET Assay was run according to the following protocol.HIS-tagged RORγ-LBD protein was expressed in SF9 cells using a baculovirus expression system. The RORγ-LBD protein was purified by […] chromatography. Separately, SF9 cells not expressing any recombinant protein were lysed and the lysate was added to the purified RORγ-LBD at 0.25 ul lysate (from 10,000 SF9 cells)/nM purified protein. The mixture was then diluted in assay buffer (50 mM Tris pH 7.0, 50 mM KCl, 1 mM EDTA, 0.1 mM DTT) to obtain RORγ-LBD final concentration of 3 nM in 384-well assay plate. Compounds to be tested were injected to the assay plate using Acoustic Droplet Ejection technology by Echo 550 liquid handler (Labcyte, Calif.). A stock of biotinylated-LXXLL peptide from coactivator SRC1 (Biotin-[…]) (SEQ ID NO:2) was prepared in assay buffer and added to each well (100 nM final concentration). […].

Consider two compounds from ChEMBL document CHEMBL5725235, “3-cyclohexenyl and cyclohexyl substituted indole and indazole compounds as RORgammaT inhibitors and uses thereof” (2016).

For the compound `CC1(C)CC(c2nn(C(=O)c3c(Cl)cccc3C(F)(F)F)c3cccc(F)c23)=CC[C@H]1C(=O)O`, the 50% inhibitory concentration (IC50) worked out at 343 nM.
In the case of `CC1(C(=O)O)CC=C(c2nn(C(=O)c3c(Cl)cccc3C(F)(F)F)c3cccc(F)c23)CC1` (configuration not stated) it was 21 nM.
